Assay results published in the supplement of paper PMC10307832.

Tests used:
Experiment in all cases: relative viability (nuclei count vs DMSO), 5 days (fraction); higher = more cells survive
CUDC-101 + Luminespib = compound: C#Cc1cccc(Nc2ncnc3cc(OC)c(OCCCCCCC(=O)NO)cc23)c1 [CUDC-101] + CCNC(=O)c1noc(-c2cc(C(C)C)c(O)cc2O)c1-c1ccc(CN2CCOCC2)cc1 [Luminespib] (partner 0.01 µM)
Summary of the method: (§1)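 For relative viability, nuclei counts in treated wells were divided by those in vehicle wells. Lung cancer cell lines had been pin-tool dosed in 1536-well plates the day after seeding and cultured for 5 days, then fixed and stained in one step (final 0.05% Triton X-100, 1% formaldehyde, 1 ug/ml Hoechst) and imaged at 4×. Doses were one drug alone or a fixed anchor-drug dose plus five library-drug doses (not always all listed) in √10 steps, and values are duplicate-plate medians.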

NVP-TAE684 + Tozasertib = compound: COc1cc(N2CCC(N3CCN(C)CC3)CC2)ccc1Nc1ncc(Cl)c(Nc2ccccc2S(=O)(=O)C(C)C)n1 [NVP-TAE684] + Cc1cc(Nc2cc(N3CCN(C)CC3)nc(Sc3ccc(NC(=O)C4CC4)cc3)n2)n[nH]1 [Tozasertib] (partner 0.1 µM)
Summary of the method: as §1

NVP-TAE684 + Navitoclax = compound: COc1cc(N2CCC(N3CCN(C)CC3)CC2)ccc1Nc1ncc(Cl)c(Nc2ccccc2S(=O)(=O)C(C)C)n1 [NVP-TAE684] + CC1(C)CCC(c2ccc(Cl)cc2)=C(CN2CCN(c3ccc(C(=O)NS(=O)(=O)c4ccc(N[C@H](CCN5CCOCC5)CSc5ccccc5)c(S(=O)(=O)C(F)(F)F)c4)cc3)CC2)C1 [Navitoclax] (partner 0.5 µM)
Summary of the method: as §1

[1] = compound: C1=CC=C2C(=C1)N=C(S2)C(C#N)C3=NC(=NC=C3)NCCC4=CN=CC=C4 + CC1(C)CCC(c2ccc(Cl)cc2)=C(CN2CCN(c3ccc(C(=O)NS(=O)(=O)c4ccc(N[C@H](CCN5CCOCC5)CSc5ccccc5)c(S(=O)(=O)C(F)(F)F)c4)cc3)CC2)C1 [Navitoclax] (partner 0.5 µM)
Summary of the method: as §1

## UMC-11
CUDC-101 + Luminespib; first compound 0.01 µM
  relative viability: 1.22
CUDC-101 + Luminespib; first compound 0.03162 µM
  relative viability: 0.879
CUDC-101 + Luminespib; first compound 0.1 µM
  relative viability: 1.03
CUDC-101 + Luminespib; first compound 0.3162 µM
  relative viability: 0.43
CUDC-101 + Luminespib; first compound 1 µM
  relative viability: 0.165
NVP-TAE684 + Tozasertib; first compound 0.2 µM
  relative viability: 0.234
NVP-TAE684 + Tozasertib; first compound 0.6325 µM
  relative viability: 0.199
NVP-TAE684 + Tozasertib; first compound 2 µM
  relative viability: 0.197
NVP-TAE684 + Navitoclax; first compound 0.2 µM
  relative viability: 0.331
NVP-TAE684 + Navitoclax; first compound 0.6325 µM
  relative viability: 0.289
NVP-TAE684 + Navitoclax; first compound 2 µM
  relative viability: 0.162
[1]; first compound 0.005 µM
  relative viability: 0.28
[1]; first compound 0.01581 µM
  relative viability: 0.304
[1]; first compound 0.05 µM
  relative viability: 0.294
[1]; first compound 0.1581 µM
  relative viability: 0.307
[1]; first compound 0.5 µM
  relative viability: 0.306
